Legend:
[1] = biological target: T1, Human immunodeficiency virus type 1 reverse transcriptase (Human immunodeficiency virus 1, UniProt Q72547, K103N); assay: Inhibition of HIV1 reverse transcriptase K103N mutant
[2] = biological target: T2, Human immunodeficiency virus type 1 reverse transcriptase (Human immunodeficiency virus 1, UniProt Q72547, V179D); assay: Inhibition of HIV1 reverse transcriptase V179D mutant
[3] = biological target: T3, Human immunodeficiency virus type 1 reverse transcriptase (Human immunodeficiency virus 1, UniProt Q72547, L100I); assay: Inhibition of HIV1 reverse transcriptase L100I mutant
[4] = biological target: T4, Human immunodeficiency virus type 1 reverse transcriptase (Human immunodeficiency virus 1, UniProt Q72547); assay: Inhibition of HIV1 wild type reverse transcriptase
[5] = biological target: T2, Human immunodeficiency virus type 1 reverse transcriptase; assay: Inhibition of HIV1 free reverse transcriptase V179D mutant
[6] = biological target: T3, Human immunodeficiency virus type 1 reverse transcriptase; assay: Inhibition of HIV1 reverse transcriptase L100I mutant/poly(rA)/oligo(dT) DNA binary complex
[7] = biological target: T2, Human immunodeficiency virus type 1 reverse transcriptase; assay: Inhibition of HIV1 reverse transcriptase V179D mutant/poly(rA)/oligo(dT) DNA/dTTP ternary complex
[8] = biological target: T4, Human immunodeficiency virus type 1 reverse transcriptase; assay: Inhibition of HIV1 wild type reverse transcriptase/poly(rA)/oligo(dT) DNA binary complex
[9] = biological target: T4, Human immunodeficiency virus type 1 reverse transcriptase; assay: Inhibition of HIV1 free wild type reverse transcriptase
[10] = biological target: T2, Human immunodeficiency virus type 1 reverse transcriptase; assay: Inhibition of HIV1 reverse transcriptase V179D mutant/poly(rA)/oligo(dT) DNA binary complex
[11] = biological target: T1, Human immunodeficiency virus type 1 reverse transcriptase; assay: Inhibition of HIV1 reverse transcriptase K103N mutant/poly(rA)/oligo(dT) DNA binary complex
[12] = biological target: T3, Human immunodeficiency virus type 1 reverse transcriptase; assay: Inhibition of HIV1 reverse transcriptase L100I mutant/poly(rA)/oligo(dT) DNA/dTTP ternary complex
[13] = biological target: T4, Human immunodeficiency virus type 1 reverse transcriptase; assay: Inhibition of HIV1 wild type reverse transcriptase/poly(rA)/oligo(dT) DNA/dTTP ternary complex
[14] = biological target: T3, Human immunodeficiency virus type 1 reverse transcriptase; assay: Inhibition of HIV1 free reverse transcriptase L100I mutant
[15] = biological target: T1, Human immunodeficiency virus type 1 reverse transcriptase; assay: Inhibition of HIV1 free reverse transcriptase K103N mutant
[16] = biological target: T1, Human immunodeficiency virus type 1 reverse transcriptase; assay: Inhibition of HIV1 reverse transcriptase K103N mutant/poly(rA)/oligo(dT) DNA/dTTP ternary complex

Structure (SMILES)	IC50 [1] [nM]	IC50 [2] [nM]	IC50 [3] [nM]	IC50 [4] [nM]	Ki [5] [nM]	Ki [6] [nM]	Ki [7] [nM]	Ki [8] [nM]	Ki [9] [nM]	Ki [10] [nM]	Ki [11] [nM]	Ki [12] [nM]	Ki [13] [nM]	Ki [14] [nM]	Ki [15] [nM]	Ki [16] [nM]
CCC1(c2ccc(CSc3c(Cl)cccc3Cl)cc2)Oc2ccccc2-n2cccc2C1=O (racemic)	> 400000	> 40000	> 400000	7360												
CCC1(c2ccc(COc3cccc(Cl)c3)cc2)Oc2ccccc2-n2cccc2C1=O (racemic)	300	300	250	100												
CCC1(c2ccc(CSc3ccccc3)cc2)Oc2ccccc2-n2cccc2C1=O (racemic)	250	150	990	60												
CCC1(c2ccc(CSc3ccc(Br)cc3)cc2)Oc2ccccc2-n2cccc2C1=O (racemic)	1160	290	> 400000	60												
CCC1(c2ccc(CSc3ccccc3)cc2)Oc2ccccc2-n2cccc2C1=O (single isomer, unassigned; (+))					780	700	540	420	420	780	1350	510	100	700	1350	780
CCC1(c2ccc(CSc3ccc(F)cc3)cc2)Oc2ccccc2-n2cccc2C1=O (racemic)	3350	> 40000	> 400000	250												
CCC1(c2ccc(CSc3ccc(Br)cc3)cc2)Oc2ccccc2-n2cccc2C1=O (single isomer, unassigned; (+))					620	1200	190	400	400	620	2210	30	110	1200	2210	1040
CCC1(c2ccc(COc3ccccc3)cc2)Oc2ccccc2-n2cccc2C1=O (racemic)	400		200	150												
CCC1(c2ccc(CSc3ccc(F)cc3Cl)cc2)Oc2ccccc2-n2cccc2C1=O (single isomer, unassigned; (+))					140	200	120	90	90	140	510	150	10	200	510	20
CCC1(c2ccc(CSc3ccc(F)cc3Cl)cc2)Oc2ccccc2-n2cccc2C1=O (racemic)	20500	> 40000	> 400000	610												

Source: ChEMBL document CHEMBL1799949, “Enantioselective binding of second generation pyrrolobenzoxazepinones to the catalytic ternary complex of HIV-1 RT wild-type and L100I and K103N drug resistant mutants” (Bioorg Med Chem Lett, 2011)
